Assay results taken from patent publication US10703765B2 (priority 2014, dated 2020).
Where a name gives a salt, the structure may show the parent alone.

Target: human σ1 receptor (Homo sapiens, UniProt Q99720)
Assay: biochemical
Type: binding
Design: μ and σ1 dual binding: key to the marks not given beside the values
Conditions: not given

Sequence of human σ1 receptor (Q99720 whole entry): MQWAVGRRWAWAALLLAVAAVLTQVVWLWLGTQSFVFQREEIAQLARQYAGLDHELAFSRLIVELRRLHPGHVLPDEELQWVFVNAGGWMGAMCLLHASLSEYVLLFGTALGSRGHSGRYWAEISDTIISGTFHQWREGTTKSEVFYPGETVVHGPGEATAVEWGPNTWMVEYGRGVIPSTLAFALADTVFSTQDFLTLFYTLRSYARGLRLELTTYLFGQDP

| Compound | μ and σ1 dual binding | Ki |
| --- | --- | --- |
| CC1OC2(CCN(CC3CCOCC3)CC2)CN(c2ccccc2)C1=O.Cl (stereo not drawn) [Example 59, 2-methyl-4-phenyl-9-((tetrahydro-2H-pyran-4-yl)methyl)-1-oxa-4,9-diazaspiro[5.5]undecan-3-one hydrchloride] | ++ | – |
| COCC1OC2(CCN(CCc3ccccn3)CC2)CN(c2ccccc2F)C1=O.Cl (stereo not drawn) [Example 134, 4-(2-fluorophenyl)-2-(methoxymethyl)-9-(2-(pyridin-2-yl)ethyl)-1-oxa-4,9-diazaspiro[5.5]undecan-3-one hydrochloride] | ++ | – |
| CC1OC2(CCN(CCc3cccc(NC(N)=O)c3)CC2)CN(c2ccccc2)C1=O (stereo not drawn) [Example 262, 1-(3-(2-(2-methyl-3-oxo-4-phenyl-1-oxa-4,9-diazaspiro[5.5]undecan-9-yl)ethyl)phenyl)urea] | – | < 500 nM |
| CC1CN(Cc2ccn(C)n2)CC2(CCN(CCc3ccccc3)CC2)O1 (stereo not drawn) [Example 328, 2-methyl-4-((1-methyl-1H-pyrazol-3-yl)methyl)-9-phenethyl-1-oxa-4,9-diazaspiro[5.5]undecane dihydrochloride] | ++ | – |
| CC1OC2(CCN(CCc3ccnc(C(F)(F)F)c3)CC2)CN(c2ccccc2)C1=O.Cl (stereo not drawn) [Example 40, 2-methyl-4-phenyl-9-(2-(2-(trifluoromethyl)pyridin-4-yl)ethyl)-1-oxa-4,9-diazaspiro[5.5]undecan-3-one hydrochloride] | ++ | – |
| COC(=O)CCN1CCC2(CC1)CN(Cc1ccccc1)CC1(CC1)O2 [Example 347, methyl 3-(12-benzyl-4-oxa-8,12-diazadispiro[2.1.5.3]tridecan-8-yl)propanoate] | – | < 500 nM |
| CC(=O)Nc1ccccc1CCN1CCC2(CC1)CN(c1ccccc1)C(=O)C(C)O2 (stereo not drawn) [Example 245, N-(2-(2-(2-methyl-3-oxo-4-phenyl-1-oxa-4,9-diazaspiro[5.5]undecan-9-yl)ethyl)phenyl)acetamide] | ++ | – |
| CC1OC2(CCN(CCc3ccccc3)CC2)CN(c2ccncc2)C1=O.Cl (stereo not drawn) [Example 205, 2-methyl-9-phenethyl-4-(pyridin-4-yl)-1-oxa-4,9-diazaspiro[5.5]undecan-3-one hydrochloride] | ++ | – |
| CC(C)C1OC2(CCN(CCc3ccccc3)CC2)CN(c2ccccc2F)C1=O (stereo not drawn) [Example 312, 4-(2-fluorophenyl)-2-isopropyl-9-phenethyl-1-oxa-4,9-diazaspiro[5.5]undecan-3-one hydrochloride] | – | < 100 nM |
| CC(=O)Nc1ccc(CCN2CCC3(CC2)CN(c2ccccc2)C(=O)C(C)O3)cc1.Cl (stereo not drawn) [Example 241, N-(4-(2-(2-methyl-3-oxo-4-phenyl-1-oxa-4,9-diazaspiro[5.5]undecan-9-yl)ethyl)phenyl)acetamide hydrochloride] | ++ | – |
| COCCC=C1OC2(CCN(CCc3ccccc3)CC2)CN(c2ccccc2F)C1=O [Example 142, 4-(2-fluorophenyl)-2-(3-methoxypropylidene)-9-phenethyl-1-oxa-4,9-diazaspiro[5.5]undecan-3-one] | – | < 500 nM |
| CC1OC2(CCN(CCc3cc(C(F)(F)F)ccn3)CC2)CN(c2ccccc2)C1=O (stereo not drawn) [Example 28, 2-methyl-4-phenyl-9-(2-(4-(trifluoromethyl)pyridin-2-yl)ethyl)-1-oxa-4,9-diazaspiro[5.5]undecan-3-one hydrochloride] | – | < 100 nM |
| CC1OC2(CCN(CC(O)c3ccccc3)CC2)CN(c2ccccc2)C1=O (mixture of isomers) [Example 150, 9-(2-hydroxy-2-phenylethyl)-2-methyl-4-phenyl-1-oxa-4,9-diazaspiro[5.5]undecan-3-one] | – | > 500 nM |
| CC1OC2(CCN(CCc3cccc(NC(N)=O)n3)CC2)CN(c2ccccc2)C1=O (stereo not drawn) [Example 264, 1-(6-(2-(2-methyl-3-oxo-4-phenyl-1-oxa-4,9-diazaspiro[5.5]undecan-9-yl)ethyl)pyridin-2-yl)urea] | – | < 500 nM |

Same assay, conditions: combined class from Ki-σ1 (human σ1 receptor, A1) and Ki-μ (human μ-opioid receptor, A2) radioligand binding

| Compound | μ and σ1 dual binding |
| --- | --- |
| CC1OC2(CCN(CCc3ccnc(N)c3)CC2)CN(c2ccccc2)C1=O (stereo not drawn) [Example 32, 9-(2-(2-aminopyridin-4-yl)ethyl)-2-methyl-4-phenyl-1-oxa-4,9-diazaspiro[5.5]undecan-3-one] | ++ |
| CC1OC2(CCN(CCc3ccc(N)cn3)CC2)CN(c2ccccc2F)C1=O (stereo not drawn) [Example 230, 9-(2-(5-aminopyridin-2-yl)ethyl)-4-(2-fluorophenyl)-2-methyl-1-oxa-4,9-diazaspiro[5.5]undecan-3-one] | ++ |
| Oc1ccc(CCN2CCC3(CC2)CN(c2ccccc2)CCO3)cc1 [Example 292, 4-(2-(4-phenyl-1-oxa-4,9-diazaspiro[5.5]undecan-9-yl)ethyl)phenol] | ++ |

Same assay, conditions: read-out: μ and σ1 dual binding

| Compound | Ki |
| --- | --- |
| CC1OC2(CCN(CCc3ccccc3)CC2)CN(Cc2cncs2)C1=O (stereo not drawn) [Example 161, 2-methyl-9-phenethyl-4-(thiazol-5-ylmethyl)-1-oxa-4,9-diazaspiro[5.5]undecan-3-one hydrochloride] | < 500 nM |
| CC1OC2(CCN(CCc3ccc(N)nc3)CC2)CN(c2ccccc2)C1=O (stereo not drawn) [Example 280, 9-(2-(6-aminopyridin-3-yl)ethyl)-2-methyl-4-phenyl-1-oxa-4,9-diazaspiro[5.5]undecan-3-one] | > 500 nM |
| O=C1N(c2cnccc2C(F)(F)F)CC2(CCN(CCc3ccccc3F)CC2)OC12CC2 [Example 223, 8-(2-fluorophenethyl)-12-(4-(trifluoromethyl)pyridin-3-yl)-4-oxa-8,12-diazadispiro[2.1.5.3]tridecan-13-one hydrochloride] | < 100 nM |
| COc1ccccc1CCN1CCC2(CC1)CN(Cc1ccccn1)CCO2 [Example 326, 9-(2-methoxyphenethyl)-4-(pyridin-2-ylmethyl)-1-oxa-4,9-diazaspiro[5.5]undecane] | < 500 nM |
| O=C1N(CCOC2CCCCO2)CC2(CCN(CCc3ccccc3)CC2)OC12CC2 (stereo not drawn) [Example 185, 12-(2-((tetrahydro-2H-pyran-2-yl)oxy)ethyl)-8-phenethyl-4-oxa-8,12-diazadispiro[2.1.5.3]tridecan-13-one] | > 500 nM |
| O=C1COC2(CCN(CCc3ccccc3)CC2)CN1Cc1cccc([N+](=O)[O-])c1 [Example 179, 4-(3-nitrobenzyl)-9-phenethyl-1-oxa-4,9-diazaspiro[5.5]undecan-3-one] | > 500 nM |
| CC1OC2(CCN(CCc3ncccc3Cl)CC2)CN(Cc2ccc(C(F)(F)F)cn2)C1=O (stereo not drawn) [Example 45, 9-(2-(3-chloropyridin-2-yl)ethyl)-2-methyl-4-((5-(trifluoromethyl)pyridin-2-yl)methyl)-1-oxa-4,9-diazaspiro[5.5]undecan-3-one hydrochloride] | < 100 nM |
| COC(=O)CCN1CCC2(CC1)CN(c1ccccc1)C(=O)C(C)O2 (stereo not drawn) [Example 64, methyl 3-(2-methyl-3-oxo-4-phenyl-1-oxa-4,9-diazaspiro[5.5]undecan-9-yl)propanoate] | > 500 nM |
| O=C1CO[C@@]2(CCN(Cc3ccccc3)C2)CN1c1ccccc1 [Example 349, (R)-2-benzyl-9-phenyl-6-oxa-2,9-diazaspiro[4.5]decan-8-one] | > 500 nM |
| O=C1COC2(CCN(CC(O)c3ccccc3)CC2)CN1Cc1ccc(C(F)(F)F)cn1 (stereo not drawn) [Example 278, 9-(2-hydroxy-2-phenylethyl)-4-((5-(trifluoromethyl)pyridin-2-yl)methyl)-1-oxa-4,9-diazaspiro[5.5]undecan-3-one] | < 500 nM |
| CC1OC2(CCN(CCc3ccc(C(=O)O)cc3)CC2)CN(c2ccccc2)C1=O (stereo not drawn) [Example 267, 4-(2-(2-methyl-3-oxo-4-phenyl-1-oxa-4,9-diazaspiro[5.5]undecan-9-yl)ethyl)benzoic acid] | > 500 nM |
| O=C1CO[C@]2(CCN(Cc3ccccc3)C2)CN1c1ccccc1 [Example 350, (S)-2-benzyl-9-phenyl-6-oxa-2,9-diazaspiro[4.5]decan-8-one] | > 500 nM |
| CC(C)=C1OC2(CCN(CCc3ccccn3)CC2)CN(c2ccccc2F)C1=O [Example 139] | > 500 nM |
| CC1OC2(CCN(CCc3csc(NC(=O)OC(C)(C)C)n3)CC2)CN(c2ccccc2F)C1=O (stereo not drawn) [Example 140, tert-butyl (4-(2-(4-(2-fluorophenyl)-2-methyl-3-oxo-1-oxa-4,9-diazaspiro[5.5]undecan-9-yl)ethyl)thiazol-2-yl)carbamate] | > 500 nM |
| CC(=O)Nc1ccnc(CCN2CCC3(CC2)CN(c2ccccc2)C(=O)C(C)O3)c1 (stereo not drawn) [Example 253, N-(2-(2-(2-methyl-3-oxo-4-phenyl-1-oxa-4,9-diazaspiro[5.5]undecan-9-yl)ethyl)pyridin-4-yl)acetamide hydrochloride] | > 500 nM |
| CC1OC2(CCN(CCC(=O)Nc3ccccc3)CC2)CN(c2ccccc2)C1=O (stereo not drawn) [Example 144, 3-(2-methyl-3-oxo-4-phenyl-1-oxa-4,9-diazaspiro[5.5]undecan-9-yl)-N-phenylpropanamide hydrochloride] | < 500 nM |
| CC1OC2(CCN(CCC(=O)O)CC2)CN(c2ccccc2)C1=O (stereo not drawn) [Example 269, 3-(2-methyl-3-oxo-4-phenyl-1-oxa-4,9-diazaspiro[5.5]undecan-9-yl)propanoic acid] | > 500 nM |
| CC1OC2(CCN(CCc3ccccc3)CC2)CN(c2cccnc2)C1=O (stereo not drawn) [Example 194, 2-methyl-9-phenethyl-4-(pyridin-3-yl)-1-oxa-4,9-diazaspiro[5.5]undecan-3-one hydrochloride] | < 500 nM |
| CC(C)OCCN1CCC2(CC1)CN(c1ccccc1)C(=O)C(C)O2 (stereo not drawn) [Example 122, 9-(2-isopropoxyethyl)-2-methyl-4-phenyl-1-oxa-4,9-diazaspiro[5.5]undecan-3-one] | > 500 nM |
| CC1OC2(CCN(CCc3ccccc3)CC2)CN(c2cccc(C(F)(F)F)n2)C1=O (stereo not drawn) [Example 207, 2-methyl-9-phenethyl-4-(6-(trifluoromethyl)pyridin-2-yl)-1-oxa-4,9-diazaspiro[5.5]undecan-3-one] | < 100 nM |
| Nc1cccc(CCN2CCC3(CC2)CN(c2ccccc2)C(=O)C2(CC2)O3)c1 [Example 231, 8-(3-aminophenethyl)-12-phenyl-4-oxa-8,12-diazadispiro[2.1.5.3]tridecan-13-one] | > 500 nM |
| CC1CN(Cc2ccccn2)CC2(CCN(CCc3ccccc3)CC2)O1 (stereo not drawn) [Example 330, 2-methyl-9-phenethyl-4-(pyridin-2-ylmethyl)-1-oxa-4,9-diazaspiro[5.5]undecane hydrochloride] | < 100 nM |
